In patent publication US5739359A, “Methods for preparing 1-deoxy paclitaxels” (Virginia Tech Intellectual Properties, Inc., priority 1997, dated 1998):

What was measured:
[1] = system: paclitaxel-resistant cell line HCT116/VM46; test: cells; assay type: cell-based; conditions: Homo sapiens, HCT-116/VM46, 72 h, read-out: Cytotoxicity Assay IC50
Protocol: Cytotoxicity was assessed in HCT-116 and line HCT116/VM46 human colon carcinoma cells by MTS (3-(4,5-dimethylthiazol-2-yl)-5-(3-carboxymethoxyphenyl)-2-(4-sulphenyl)-2H-tetrazolium, inner salt) assay as reported in T. L. Riss, el. al., "Comparison of MTT, XTT, and a novel tetrazolium compound MTS for in vitro proliferation and chemosensitivity assays.," Mol. Biol. Cell 3 (Suppl.):184a, 1992. Cells were plated at 4,000 cell/well in 96 well microliter plates and 24 hours later drugs were added and serial diluted. The cells were incubated at 37° for 72 hours at which time the tetrazolium dye, MTS at 333 μg/ml (final concentration), in combination with the electron coupling agent phenazine methosulfate at 25 μM (final concentration) was added. A dehydrogenase enzyme in live cells reduces the MTS to a form that absorbs light at […] which can be quantitated spectrophotometrically. The greater the absorbance the greater the number of live cells. The results are expressed as an IC50, which is the drug concentration required to inhibit cell proliferation (i.e. absorbance at 450 nm) to 50% of that of untreated control cells. The IC50 values for compounds evaluated in this assay are evaluated in Table I.

[2] = system: human colon carcinoma cells HCT-116; test: MTS in vitro cytotoxicity assay, HCT-116; assay type: cell-based; conditions: 72 h exposure
Protocol: Cells were plated at 4,000 cell/well in 96 well microliter plates and 24 hours later drugs were added and serial diluted. […] The greater the absorbance the greater the number of live cells.

[3] = in vivo animal models; cited from earlier work

Structure (SMILES) | IC50 [1] | IC50 [2] | antitumor activity (in words) [3]
CC(=O)O[C@@]12CO[C@@H]1C[C@@H]1OC(C)(C)O[C@H]3[C@H](O)C4=C(C)[C@@H](OC(=O)[C@H](O)[C@@H](NC(=O)c5ccccc5)c5ccccc5)C[C@@H]([C@@H](OC(=O)c5ccccc5)[C@H]2[C@@]13C)C4(C)C [Compound 7a, 10-Deacetyl-1-deoxy-9(R)-dihydropaclitaxel 7,9-acetonide] | 0.0115 nM |  | 
CC(=O)O[C@@]12CO[C@@H]1C[C@@H]1OC(c3ccccc3)O[C@H]3[C@H](O)C4=C(C)[C@@H](OC(=O)[C@H](O)[C@@H](NC(=O)OC(C)(C)C)c5ccccc5)C[C@@H]([C@@H](OC(=O)c5ccccc5)[C@H]2[C@@]13C)C4(C)C (stereo partly drawn) [Compound 7b, 1-deoxy-9(R)-dihydrodocetaxel 7,9-benzylidene acetal] | 0.0296 nM | 0.0105 nM | 
CC(=O)O[C@@H]1C2=C(C)[C@@H](OC(=O)[C@H](O)[C@@H](NC(=O)OC(C)(C)C)c3ccccc3)C[C@@H]([C@@H](OC(=O)c3ccccc3)[C@@H]3[C@]4(OC(C)=O)CO[C@@H]4C[C@H](OC(C)=O)[C@@]3(C)[C@H]1OC(C)=O)C2(C)C [Compound 7c, 7,9,10-triacetyl-1-deoxy-9(R)-dihydrodocetaxel] | 0.0218 nM |  | 
CC(=O)O[C@H]1C(=O)[C@@]2(C)[C@H]([C@H](OC(=O)c3ccccc3)[C@]3(O)C[C@H](OC(=O)[C@H](O)[C@@H](NC(=O)c4ccccc4)c4ccccc4)C(C)=C1C3(C)C)[C@]1(OC(C)=O)CO[C@@H]1C[C@@H]2O [paclitaxel] | 0.225 nM |  | excellent antitumor activity
